Like-named read-outs stand apart in the source and are kept apart here. Starred links: 1 amine or outer side, 2 acyl side, 3 side chain; linkers in the order of their positions; H or OH if unused. Positions of bridges follow the written chain, without caps; N, C: chain ends. Non-standard residues stand in square brackets, D forms with d. Residues, ends and D or L forms follow the SMILES beside them. No end group written: not given here. ξ: configuration not given here. Biphenyl(4,4'-CH2)2 = c1cc(-c2ccc(C[*:2])cc2)ccc1C[*:1]; ξαMeNle(6-ylidene) = CC(CCCC=[*:3])(N[*:1])C(=O)[*:2]; X1 = CC(CCCCCCC=[*:3])(N[*:1])C(=O)[*:2]; Octanediyl(1,8) = C(CCCC[*:2])CCC[*:1]; ξC = NC(CS)C(=O)O Some results are limits rather than exact numbers.

A word on the IC50: it is the midpoint of a concentration-inhibition curve.

Format in all cases: cell-based
Experiment [1] deals with NCI-H128, epithelial (small cell lung cancer). As to the kind of experiment: MTT viability assay, NCI-H128. As to the method: NCI-[…], epithelial (small cell lung cancer), ATCC: HTB-120TM […] During the amplification step and the assays adherent cells were rinsed with DPBS (Dulbecco's Phosphate Buffered Saline, Sigma D1283) three times and afterward treated for 5 minutes with trypsin ([…]) (Gibco-BRL, 15400054) in solution of DPBS at 37° C., and, once detached, transferred in the culturing medium. No-adherent cells were centrifuged and transferred in the culturing medium. Cells were counted in a Neubauer chamber after labelling with Tripan-Blue. […] Cells were seeded at a density of 10,000 cells/well in 100 μl of medium in 96 well plates. […] Controls are the untreated cells. Each experiment was performed in triplicate. Cells were incubated with the compounds at the indicated concentrations during 24-72 h in incubator under CO2 atmosphere at 37° C. […] Stock solution of MTT (475989 Calbiochem) was 5 mg/ml in PBS. 1×.10 μl/well of MTT solution were added and the plate was incubated for 3-4 hr. […] Plates were incubated for 16 h at room temperature under orbital shaking. Absorbance at 570 nm was finally measured. […] The dose/response curve was fitted through the sigmoidal equation dose-response (variable slope) and the IC50 values were calculated as follow: […]
(In general: Formazan colour is commonly taken as a measure of viable cells.)

The test system of experiment [2] is HL-60, promyeloblast (acute myelocytic leukemia, AML). As to the kind of experiment: MTT viability assay, HL-60. As for the experimental part: (§1) HL-60, promyeloblast (acute myelocytic leukemia, AML), ECACC: 98070106 […] During the amplification step and the assays adherent cells were rinsed with DPBS (Dulbecco's Phosphate Buffered Saline, Sigma D1283) three times and afterward treated for 5 minutes with trypsin ([…]) (Gibco-BRL, 15400054) in solution of DPBS at 37° C., and, once detached, transferred in the culturing medium. No-adherent cells were centrifuged and transferred in the culturing medium. Cells were counted in a Neubauer chamber after labelling with Tripan-Blue. […] Cells were seeded at a density of 10000 cells/well in 100 μl of medium in 96 well plates. […] Controls are the untreated cells. Each experiment was performed in triplicate. Cells were incubated with the compounds at the indicated concentrations during 24-72 h in incubator under CO2 atmosphere at 37° C. […] Stock solution of MTT (475989 Calbiochem) was 5 mg/ml in PBS. 1×.10 μl/well of MTT solution were added and the plate was incubated for 3-4 hr. […] Plates were incubated for 16 h at room temperature under orbital shaking. Absorbance at 570 nm was finally measured. […] The dose/response curve was fitted through the sigmoidal equation dose-response (variable slope) and the IC50 values were calculated as follow: Y=Bottom+(Top−Bottom)/(1+10^{[(LogIC50−X)*HillSlope]},

The subject of experiment [3] is MCF-7, epithelial (breast cancer). As for the experimental part:
as §1, with “MCF-7, epithelial (breast cancer),” for “HL-60, promyeloblast (acute myelocytic leukemia, AML),”, “86012803” for “98070106”

Setting [4] is: HL-60, same protocol as Example 2, Table 6, read-out: Compound (IC50).
The mark [5] stands for this setting: MCF7, same protocol as Example 2, Table 6, read-out: Compound (IC50).

In turn, `CC[C@H](C)[C@H](NC(=O)[C@H](Cc1ccc(O)cc1)NC(=O)[C@H](C)NC(=O)C1CSCCCCCCCCSCC(NC(=O)[C@H](CCCCN)NC(=O)[C@@H]2CCCN2C(=O)[C@H](C)N)C(=O)N[C@@H](C(C)C)C(=O)N[C@@H]([C@@H](C)CC)C(=O)N[C@@H](CC(C)C)C(=O)N[C@@H](CCCCN)C(=O)N[C@@H](CCCCN)C(=O)N[C@@H](C)C(=O)N1)C(=O)N[C@@H](CC(C)C)C(=O)N[C@@H](CO)C(=O)O` (stereo partly shown) [IDP-P1708160] (H-APK[ξC]VILKKA[ξC]AYILS-OH; linker 4-11 via Octanediyl(1,8); N-terminus and C-terminus assumed) displayed a half-inhibitory concentration (IC50) in experiment [1] of 16 ± 1 µM.
`CC[C@H](C)[C@H](NC(=O)[C@H](Cc1ccc(O)cc1)NC(=O)[C@H](C)NC(=O)[C@@H](NC(=O)[C@H](C)NC(=O)C1(C)CCCC=CCCCCCCC(C)(NC(=O)[C@H](C)N)C(=O)N[C@@H](CCCCN)C(=O)N[C@@H](C(C)C)C(=O)N[C@@H](C(C)C)C(=O)N[C@@H]([C@@H](C)CC)C(=O)N[C@@H](CC(C)C)C(=O)N[C@@H](CCCCN)C(=O)N1)[C@@H](C)O)C(=O)N[C@@H](CC(C)C)C(=O)N[C@@H](CO)C(=O)O` (stereo partly shown) [IDP-S19, AXKVVILKXATAYILS] (H-A[X1]KVVILK[ξαMeNle(6-ylidene)]ATAYILS-OH; staple 2-9): the IC50 in experiment [2] (setting [4]) and in experiment [3] (setting [5]) was greater than 100 µM each time.
As to `CCc1ccc(/C=C2/SC(=S)NC2=O)cc1` [10058-F4, reference compound], the IC50 in experiment [2] (HL-60, MTT, incubation 24-72 h, Table 3, read-out: IC50 values) is 54 ± 2 µM; in experiment [3] (MCF7, MTT, incubation 24-72 h, Table 3, read-out: IC50 values) it was roughly 52 µM.
As for `CC[C@H](C)[C@H](NC(=O)C1(C)CCCC=CCCCCCCC(C)(NC(=O)[C@@H](NC(=O)[C@@H](NC(=O)[C@H](CCCCN)NC(=O)[C@@H]2CCCN2C(=O)[C@H](C)N)C(C)C)C(C)C)C(=O)N[C@@H](CC(C)C)C(=O)N[C@@H](CCCCN)C(=O)N[C@@H](CCCCN)C(=O)N[C@@H](C)C(=O)N[C@@H]([C@@H](C)O)C(=O)N[C@@H](C)C(=O)N1)C(=O)N[C@@H](CC(C)C)C(=O)N[C@@H](CO)C(=O)O` (stereo partly shown) [IDP-S22, APKVVXLKKATAXILS] (H-APKVV[X1]LKKATA[ξαMeNle(6-ylidene)]ILS-OH; staple 6-13; N-terminus and C-terminus assumed), the half-inhibitory concentration (IC50) in experiment [2] and in experiment [3] was greater than 100 µM throughout.
As to `CC[C@H](C)[C@H](NC(=O)[C@@H](NC(=O)[C@@H](NC(=O)[C@H](CCCCN)NC(=O)[C@@H]1CCCN1C(=O)[C@H](C)N)C(C)C)C(C)C)C(=O)NC1(C)CCCCCCC=CCCCC(C)(C(=O)N[C@@H](CC(C)C)C(=O)N[C@@H](CO)C(=O)O)NC(=O)[C@H](Cc2ccc(O)cc2)NC(=O)[C@H](C)NC(=O)[C@H]([C@@H](C)O)NC(=O)[C@H](C)NC(=O)[C@H](CCCCN)NC(=O)[C@H](CCCCN)NC1=O` (stereo partly shown) [IDP-S17, APKVVIXKKATAYXLS] (H-APKVVI[X1]KKATAY[ξαMeNle(6-ylidene)]LS-OH; staple 7-14; N-terminus and C-terminus assumed), the IC50 in experiment [2] and in experiment [3] was greater than 100 µM throughout.
On to “RQIKIWFQNRRMKWKKNELKRAFAALRDQI [Int-HI-S6A-F8, reference compound]”, for which the IC50 in experiment [2] and in experiment [3] was greater than 100 µM throughout.
For the compound `CC[C@H](C)[C@H](NC(=O)[C@H](Cc1ccc(O)cc1)NC(=O)[C@H](C)NC(=O)C1(C)CCCC=CCCCCCCC(C)(NC(=O)[C@H](CCCCN)NC(=O)[C@@H]2CCCN2C(=O)[C@H](C)N)C(=O)N[C@@H](C(C)C)C(=O)N[C@@H]([C@@H](C)CC)C(=O)N[C@@H](Cc2ccccc2)C(=O)N[C@@H](CCCCN)C(=O)N[C@@H](CCCCN)C(=O)N[C@@H](C)C(=O)N1)C(=O)N[C@@H](CC(C)C)C(=O)N[C@@H](CO)C(=O)O` (stereo partly shown) [S14, APKXVIFKKAXAYILS—OH] (H-APK[X1]VIFKKA[ξαMeNle(6-ylidene)]AYILS-OH; staple 4-11; N-terminus assumed), half-maximal inhibition in experiment [2] (IC50) was put at 7.8 ± 0.4 µM.
As to `CC[C@H](C)[C@@H]1NC(=O)[C@H](Cc2ccc(O)cc2)NC(=O)[C@H](C)NC(=O)[C@H]([C@@H](C)O)NC(=O)[C@H](C)NC(=O)C(C)(NC(=O)[C@H](CCCCN)NC(=O)[C@H](CC(C)C)NC(=O)[C@@H](NC(=O)[C@@H](NC(=O)[C@@H](NC(=O)[C@H](CCCCN)NC(=O)[C@@H]2CCCN2C(=O)[C@H](C)N)C(C)C)C(C)C)[C@@H](C)CC)CCCCCCC=CCCCC(C)(C(=O)N[C@H](C(=O)O)C(C)C)NC(=O)[C@H](CC(C)C)NC1=O` (stereo partly shown) [IDP-S23, APKVVILKXATAYILXV] (H-APKVVILK[X1]ATAYIL[ξαMeNle(6-ylidene)]V-OH; staple 9-16), the IC50 in experiment [2] (setting [4]) and in experiment [3] (setting [5]) was greater than 100 µM each time.
`CC[C@H](C)[C@H](NC(=O)[C@H](Cc1ccc(O)cc1)NC(=O)[C@H](C)NC(=O)[C@@H]1CSCc2ccc(cc2)-c2ccc(cc2)CSC[C@H](NC(=O)[C@H](CCCCN)NC(=O)[C@@H]2CCCN2C(=O)[C@H](C)N)C(=O)N[C@@H](C(C)C)C(=O)N[C@@H]([C@@H](C)CC)C(=O)N[C@@H](CC(C)C)C(=O)N[C@@H](CCCCN)C(=O)N[C@@H](CCCCN)C(=O)N[C@@H](C)C(=O)N1)C(=O)N[C@@H](CC(C)C)C(=O)N[C@@H](CO)C(=O)O` [IDP-P1708161] (H-APKCVILKKACAYILS-OH; linker 4-11 via Biphenyl(4,4'-CH2)2; N-terminus and C-terminus assumed) returned an IC50 in experiment [1] of 14 ± 1 µM.
Consider `CC[C@H](C)[C@@H]1NC(=O)[C@H](Cc2ccc(O)cc2)NC(=O)[C@H](C)NC(=O)[C@H]([C@@H](C)O)NC(=O)[C@H](C)NC(=O)[C@H](CCCCN)NC(=O)C(C)(NC(=O)[C@H](CC(C)C)NC(=O)[C@@H](NC(=O)[C@@H](NC(=O)[C@@H](NC(=O)[C@H](CCCCN)NC(=O)[C@@H]2CCCN2C(=O)[C@H](C)N)C(C)C)C(C)C)[C@@H](C)CC)CCCCCCC=CCCCC(C)(C(=O)N[C@@H](CO)C(=O)O)NC1=O` (stereo partly shown) [IDP-S18, APKVVILXKATAYIXS] (H-APKVVIL[X1]KATAYI[ξαMeNle(6-ylidene)]S-OH; staple 8-15; N-terminus and C-terminus assumed), for which the IC50 in experiment [2] and in experiment [3] was greater than 100 µM in each case.
`CC[C@H](C)[C@H](NC(=O)[C@H](Cc1ccc(O)cc1)NC(=O)C1(C)CCCC=CCCCCCCC(C)(NC(=O)[C@@H](NC(=O)[C@H](CCCCN)NC(=O)[C@@H]2CCCN2C(=O)[C@H](C)N)C(C)C)C(=O)N[C@@H]([C@@H](C)CC)C(=O)N[C@@H](CC(C)C)C(=O)N[C@@H](CCCCN)C(=O)N[C@@H](CCCCN)C(=O)N[C@@H](C)C(=O)N[C@@H]([C@@H](C)O)C(=O)N1)C(=O)N[C@@H](CC(C)C)C(=O)N[C@@H](CO)C(=O)O` (stereo partly shown) [IDP-S21, APKVXILKKATXYILS] (H-APKV[X1]ILKKAT[ξαMeNle(6-ylidene)]YILS-OH; staple 5-12): the IC50 in experiment [2] (setting [4]) and in experiment [3] (setting [5]) was greater than 100 µM throughout.

Values taken from US20200261534A1, “NEW TREATMENTS OF MULTIPLE MYELOMA” (priority 2017, published 2020).
